Laboratory results from article PMC6911684 (Bioorganic & medicinal chemistry letters, 2019).

What was measured:
[1] = target: FTase (Homo sapiens, UniProt P49354+P49356); assay: FTase in vitro enzyme assay; assay type: biochemical
[2] = target: GGTase I (Homo sapiens, UniProt P49354+P53609); assay: GGTase I in vitro enzyme assay; assay type: biochemical
[3] = target: T1, GGTase II (Homo sapiens, UniProt P53611+Q92696); assay: GGTase II in vitro enzyme assay; assay type: biochemical
T1 sequence (Q92696 1-567): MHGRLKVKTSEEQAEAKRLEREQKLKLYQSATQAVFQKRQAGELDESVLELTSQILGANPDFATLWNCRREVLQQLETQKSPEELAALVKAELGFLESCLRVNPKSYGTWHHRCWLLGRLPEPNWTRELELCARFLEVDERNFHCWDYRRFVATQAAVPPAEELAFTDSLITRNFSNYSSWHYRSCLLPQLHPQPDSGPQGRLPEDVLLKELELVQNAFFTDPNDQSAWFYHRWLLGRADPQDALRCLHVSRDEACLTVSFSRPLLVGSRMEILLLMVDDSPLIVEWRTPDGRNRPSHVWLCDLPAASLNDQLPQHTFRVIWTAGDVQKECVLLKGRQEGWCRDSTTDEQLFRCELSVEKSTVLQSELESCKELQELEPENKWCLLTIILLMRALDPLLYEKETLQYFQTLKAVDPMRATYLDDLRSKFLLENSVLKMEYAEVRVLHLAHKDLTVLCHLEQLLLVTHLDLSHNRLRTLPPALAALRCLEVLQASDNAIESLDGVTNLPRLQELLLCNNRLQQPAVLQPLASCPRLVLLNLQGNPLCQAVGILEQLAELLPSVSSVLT
T1 sequence (P53611 1-331): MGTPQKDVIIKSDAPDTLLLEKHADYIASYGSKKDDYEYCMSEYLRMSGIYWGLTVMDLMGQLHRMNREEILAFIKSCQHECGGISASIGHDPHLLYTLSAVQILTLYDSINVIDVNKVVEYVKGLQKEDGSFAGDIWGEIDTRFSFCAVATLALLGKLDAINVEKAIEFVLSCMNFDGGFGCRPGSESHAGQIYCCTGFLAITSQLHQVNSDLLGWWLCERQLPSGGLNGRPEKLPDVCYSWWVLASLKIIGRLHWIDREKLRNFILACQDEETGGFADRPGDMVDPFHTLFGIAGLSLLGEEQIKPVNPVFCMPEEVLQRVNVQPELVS

[4] = system: RPMI-8226 cells; assay: Cellular protein prenylation assays; assay type: cell-based, human
[5] = target: T1, GGTase II; conditions: cited from earlier work
[6] = target: T2, FDPS (Homo sapiens, UniProt P14324); assay: FDPS in vitro enzyme assay; assay type: biochemical; conditions: ratio of GGDPS and FDPS IC50
T2 sequence (P14324 1-419): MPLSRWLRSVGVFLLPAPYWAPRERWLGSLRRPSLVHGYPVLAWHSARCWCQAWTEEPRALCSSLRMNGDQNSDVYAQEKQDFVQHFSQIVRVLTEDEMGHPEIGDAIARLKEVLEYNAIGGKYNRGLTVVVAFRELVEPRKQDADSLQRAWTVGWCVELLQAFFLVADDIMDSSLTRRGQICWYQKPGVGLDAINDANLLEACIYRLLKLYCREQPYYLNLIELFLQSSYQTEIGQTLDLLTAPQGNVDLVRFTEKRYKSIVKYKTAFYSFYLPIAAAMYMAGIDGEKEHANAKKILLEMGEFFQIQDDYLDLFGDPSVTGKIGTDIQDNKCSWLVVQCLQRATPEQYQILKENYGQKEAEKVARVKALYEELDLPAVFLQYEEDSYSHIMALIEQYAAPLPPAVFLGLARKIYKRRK

[7] = system: myeloma cells; conditions: cited from earlier work
[8] = system: RPMI-8226 cells; conditions: HMG-CoA reductase inhibitor, 10 μM in Figure 2; cited from earlier work
[9] = RPMI-8226 cells, 48 hours, immunoblot

SMILES: CC(Cn1cnc2ccccc21)(C(=O)O)P(=O)(O)O (centres unmarked) [Compound 14]
- IC50 [1]: > 1000 µM
- IC50 [2]: > 1000 µM

SMILES: O=C(O)C(Cn1cnc2cc(F)c(F)cc21)P(=O)(O)O (centres unmarked) [Compound 15]
- IC50 [3]: > 1000 µM

SMILES: O=C(O)C(Cn1cnc2ccccc21)P(=O)(O)O (centres unmarked) [Compound 13]
- Intracellular light chain levels ([4]; RPMI-8226 cells, 48 hours, ELISA): increase
- Membrane-bound Rab6 levels ([4]; RPMI-8226 cells, 48 hours, detergent fraction, immunoblot): decrease
- Disruption of H-Ras prenylation (representative farnesylated protein) [4, 9]: did not cause disruption
- Disruption of Rap1a prenylation (representative substrate for GGTase I) [4, 9]: did not cause disruption
- IC50 [2]: > 1000 µM

SMILES: O=C(O)C(O)(Cc1cnc2ccccn12)P(=O)(O)O (centres unmarked) [Compound 3-IPEHPC]
- Potency as GGTase II inhibitor relative to 3-PEHPC ([5]; more potent than 3-PEHPC): 25 fold

SMILES: O=P(O)(O)C(Cn1cnc2cc(F)c(F)cc21)P(=O)(O)O [Compound 19]
- Concentration for cellular activity relative to parent compound 17 ([4]; higher concentration than compound 17): 20 fold

SMILES: CC(Cn1cnc2ccccc21)(P(=O)(O)O)P(=O)(O)O [Compound 18]
- IC50 [1]: > 1000 µM
- Impairment of protein prenylation in cells ([4]; RPMI-8226 cells, 48 hours): no detectable impairment of protein prenylation
- Selectivity for FDPS relative to GGDPS [6]: >100
- IC50 [2]: > 1000 µM
- IC50 [3]: > 1000 µM

SMILES: O=C(O)C(O)(Cc1cccnc1)P(=O)(O)O (centres unmarked) [Compound 3-PEHPC]
- Concentration required to yield cellular effects [7]: > 5 mM

SMILES: Cc1cc2ncn(CC(P(=O)(O)O)P(=O)(O)O)c2cc1C [Compound 20]
- IC50 [1]: > 1000 µM
- Impairment of protein prenylation in cells ([4]; RPMI-8226 cells, 48 hours): no detectable impairment of protein prenylation
- IC50 [2]: > 1000 µM

SMILES: O=P(O)(O)C(Cn1cnc2ccccc21)P(=O)(O)O [Compound 17]
- Impairment of protein prenylation in cells ([4]; RPMI-8226 cells, 48 hours): globally disrupts protein prenylation
- Impairment of protein prenylation in combination with lovastatin ([4]; co-incubation with lovastatin 0.5 μM, RPMI-8226 cells, 48 hours): enhanced the impairment of protein prenylation
- IC50 [2]: > 1000 µM
- IC50 [3]: > 1000 µM

SMILES: Cc1cc2ncn(CC(C(=O)O)P(=O)(O)O)c2cc1C (centres unmarked) [Compound 16]
- IC50 [1]: > 1000 µM
- IC50 [2]: > 1000 µM
- IC50 [3]: > 1000 µM

SMILES: CC[C@H](C)C(=O)O[C@H]1C[C@@H](C)C=C2C=C[C@H](C)[C@H](CC[C@@H]3C[C@@H](O)CC(=O)O3)[C@H]21 [Lovastatin, reference compound]
- Impairment of protein prenylation in cells ([4]; lovastatin alone at 0.5 μM, RPMI-8226 cells, 48 hours): only minimally impairs protein prenylation
- Disruption of prenylation (positive control) [8]: disrupts all prenylation

SMILES: O=C(O)C(O)(Cc1cnc2ccccn12)P(=O)(O)O (single isomer, unassigned; (+)) [(+)-enantiomer of 3-IPEHPC]
- Activity relative to the (−)-enantiomer ([5]; more active than (−)-enantiomer): ~ 60 fold
